Results from US20210154188A1, “ALK5 INHIBITORS, CONJUGATES, AND USES THEREOF” (SILVERBACK THERAPEUTICS, INC., priority 2018, published 2021).

Columns and labels:
ALK5 = target: T1, ALK5 (Homo sapiens, UniProt P36897); test: ALK5 enzyme inhibition assay (33P-ATP filter-binding, Reaction Biology Corp); format: biochemical; conditions: casein substrate 1 mg/mL, 10 uM ATP
T1 construct: purchased Reaction Biology Corp (Malvern, PA)
T1 sequence (P36897 34-503): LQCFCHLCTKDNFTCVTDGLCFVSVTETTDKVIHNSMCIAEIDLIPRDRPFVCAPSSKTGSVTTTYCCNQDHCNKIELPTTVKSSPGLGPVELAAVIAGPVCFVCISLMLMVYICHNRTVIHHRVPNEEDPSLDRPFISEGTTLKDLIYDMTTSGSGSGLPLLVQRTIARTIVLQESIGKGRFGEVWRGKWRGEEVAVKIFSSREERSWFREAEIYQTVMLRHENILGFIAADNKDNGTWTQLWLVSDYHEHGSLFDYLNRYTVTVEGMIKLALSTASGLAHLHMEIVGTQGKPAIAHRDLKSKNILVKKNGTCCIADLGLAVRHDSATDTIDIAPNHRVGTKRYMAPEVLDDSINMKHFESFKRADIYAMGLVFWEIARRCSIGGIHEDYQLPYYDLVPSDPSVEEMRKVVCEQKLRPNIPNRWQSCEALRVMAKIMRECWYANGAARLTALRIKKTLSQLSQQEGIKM
Method: ALK5 enzyme inhibition assays were performed by Reaction Biology Corp (Malvern, PA). 1 mg/mL of peptide subtrate (casein) and 10 uM ATP were prepared in a mixture of fresh reaction buffer. The kinase was delivered into the substrate solution which was gently mixed. Compounds in 100% DMSO were added to the kinase reaction mixture by Acoustic technology (Echo550; nanoliter range) and the mixture was incubated for 20 min at room temperature. ^33P-ATP (Specific activity 10 uCi/uL) was added into the reaction mixture to initiate the reaction and the reaction mixture was incubated for 2 hours at room temperature. Radioactivity was detected by filter-binding method and kinase activity data were expressed as the percent remaining kinase activity in test samples compared to vehicle (dimethyl sulfoxide) reactions. IC50 values and curve fits were obtained using Prism (GraphPad Software).

[1] = tested on: TGFb/SMAD Signaling Pathway SBE reporter cell line; test: TGFb reporter assay (luciferase); format: cell-based; conditions: 5-6 h preincubation, then TGFb, 18 h, luminescence
Method: TGFb/SMAD Signaling Pathway SBE reporter cell line was obtained from BPS Bioscience. Cells were passed/expanded/stored in liquid nitrogen per supplier's instruction with the exception that growth media was changed to DMEM-C with Geneticin (DMEM supplemented with 10% fetal bovine serum, 1× NEAA, 1 mM Pyruvate, 2 mM glutamine, 50 μg/mL penicillin, 50 U/mL streptomycin and 400 ug/mL of Geneticin). The assay media was MEM supplemented with 0.5% fetal bovine serum, 1× NEAA, 1 mM Pyruvate, 50 μg/mL penicillin and 50 U/mL streptomycin.
Reporter cells were harvested from the tissue culture flasks by incubation in small quantity of Versene at room temperature for three to five minutes after the media in the flask was removed and cells rinsed with PBS. Cells were counted and diluted in the assay media at ˜0.8×10^6 cells/mL then 50 uL/well were added to 96-well assay plate. Test samples (at desired concentrations diluted in assay media) were added to assay plate containing the 50 uL/well of cells (or media only), 50 uL per well, and incubated for 5-6 hours at 37° C. in a 5% CO2 humidified incubator. After that time, 15 uL of TGFb diluted to 12.5 ng/mL in the assay media was added to the plate. Controls included TGFb titration (from 25 to 0 ng/mL) without inhibitors, and media only (without cells, inhibitor or TGFb). Plates were incubated at 37° C. in a 5% CO2 humidified incubator for 18 h. Luciferase substrate solution was subsequently added at 75 uL per well, incubated in dark with shaking at room temperature for 10 min, and luminescence was measured using a luminometer.

| IC50 (ALK5) | IC50 [1] | Structure (SMILES) |
| --- | --- | --- |
| 0.01 to 0.1 µM | 0.01 to 0.1 µM | Cc1cccc(-c2nc(CNCc3cccc4ccccc34)[nH]c2-c2ccc3ncnn3c2)n1 [Compound 1.57, 1-(5-([1,2,4]triazolo[1,5-a]pyridin-6-yl)-4-(6-methylpyridin-2-yl)-1H-imidazol-2-yl)-N-(naphthalen-1-ylmethyl)methanamine] |
| 0.1 to 1 µM | 0.1 to 1 µM | Cc1cccc(-c2nc(CNCc3ccc4ccccc4c3)[nH]c2-c2ccc3ncnn3c2)n1 [Compound 1.58, 1-(5-([1,2,4]triazolo[1,5-a]pyridin-6-yl)-4-(6-methylpyridin-2-yl)-1H-imidazol-2-yl)-N-(naphthalen-2-ylmethyl)methanamine] |
| 0.01 to 0.1 µM | 0.01 to 0.1 µM | Cc1cccc(-c2nc(CNCCc3cccc4ccccc34)[nH]c2-c2ccc3ncnn3c2)n1 [Compound 1.59, N-((5-([1,2,4]triazolo[1,5-a]pyridin-6-yl)-4-(6-methylpyridin-2-yl)-1H-imidazol-2-yl)methyl)-2-(naphthalen-1-yl)ethan-1-amine] |
| 0.1 to 1 µM | 0.01 to 0.1 µM | Cc1cccc(-c2nc(CNCCc3ccnc4ccccc34)[nH]c2-c2ccc3ncnn3c2)n1 [Compound 1.60, N-((5-([1,2,4]triazolo[1,5-a]pyridin-6-yl)-4-(6-methylpyridin-2-yl)-1H-imidazol-2-yl)methyl)-2-(quinolin-4-yl)ethan-1-amine] |
| 0.1 to 1 µM | 0.01 to 0.1 µM | Cc1cccc(-c2nc(CNCCc3cccc4ncccc34)[nH]c2-c2ccc3ncnn3c2)n1 [Compound 1.61, N-((5-([1,2,4]triazolo[1,5-a]pyridin-6-yl)-4-(6-methylpyridin-2-yl)-1H-imidazol-2-yl)methyl)-2-(quinolin-5-yl)ethan-1-amine] |

More lines, now with the values behind:

| Structure (SMILES) | IC50 (ALK5) | IC50 [1] |
| --- | --- | --- |
| Cc1cccc(-c2nc(CN3CCCCC3)[nH]c2-c2ccn3ncnc3c2)n1 [Compound 1.35, 7-(4-(6-methylpyridin-2-yl)-2-(piperidin-1-ylmethyl)-1H-imidazol-5-yl)-[1,2,4]triazolo[1,5-a]pyridine] | 1 to 10 µM | 0.1 to 1 µM |
| Cc1cccc(-c2nc(CN3CCc4ccccc4C3)[nH]c2-c2ccn3ncnc3c2)n1 [Compound 1.40, 2-((5-([1,2,4]triazolo[1,5-a]pyridin-7-yl)-4-(6-methylpyridin-2-yl)-1H-imidazol-2-yl)methyl)-1,2,3,4-tetrahydroisoquinoline] | 0.1 to 1 µM | 0.1 to 1 µM |
| Cc1cccc(-c2nc(CNCc3ccc4c(c3)OCO4)[nH]c2-c2ccc3ncnn3c2)n1 [Compound 1.41, 1-(5-([1,2,4]triazolo[1,5-a]pyridin-6-yl)-4-(6-methylpyridin-2-yl)-1H-imidazol-2-yl)-N-(benzo[d][1,3]dioxol-5-ylmethyl)methanamine] | 0.1 to 1 µM | 0.1 to 1 µM |
| Cc1cccc(-c2nc(CNCC3CCCCC3)[nH]c2-c2ccc3ncnn3c2)n1 [Compound 1.42, 1-(5-([1,2,4]triazolo[1,5-a]pyridin-6-yl)-4-(6-methylpyridin-2-yl)-1H-imidazol-2-yl)-N-(cyclohexylmethyl)methanamine] | 0.1 to 1 µM | 0.01 to 0.1 µM |
| Cc1cccc(-c2nc(CN[C@H]3c4ccccc4C[C@H]3O)[nH]c2-c2ccc3ncnn3c2)n1 [Compound 1.43, (1S,2R)-1-(((5-([1,2,4]triazolo[1,5-a]pyridin-6-yl)-4-(6-methylpyridin-2-yl)-1H-imidazol-2-yl)methyl)amino)-2,3-dihydro-1H-inden-2-ol] | 0.01 to 0.1 µM | 0.01 to 0.1 µM |
| Cc1cccc(-c2nc(CN[C@@H]3c4ccccc4C[C@@H]3O)[nH]c2-c2ccc3ncnn3c2)n1 [Compound 1.44, (1R,2S)-1-(((5-([1,2,4]triazolo[1,5-a]pyridin-6-yl)-4-(6-methylpyridin-2-yl)-1H-imidazol-2-yl)methyl)amino)-2,3-dihydro-1H-inden-2-ol] | 0.1 to 1 µM | 0.01 to 0.1 µM |
| Cc1cccc(-c2nc(CN[C@H]3c4ccccc4C[C@@H]3O)[nH]c2-c2ccc3ncnn3c2)n1 [Compound 1.45, (1S,2S)-1-(((5-([1,2,4]triazolo[1,5-a]pyridin-6-yl)-4-(6-methylpyridin-2-yl)-1H-imidazol-2-yl)methyl)amino)-2,3-dihydro-1H-inden-2-ol] | 0.1 to 1 µM | 0.01 to 0.1 µM |
| Cc1cccc(-c2nc(CN[C@@H]3c4ccccc4C[C@H]3O)[nH]c2-c2ccc3ncnn3c2)n1 [Compound 1.46, (1R,2R)-1-(((5-([1,2,4]triazolo[1,5-a]pyridin-6-yl)-4-(6-methylpyridin-2-yl)-1H-imidazol-2-yl)methyl)amino)-2,3-dihydro-1H-inden-2-ol] | 0.1 to 1 µM | 0.01 to 0.1 µM |
| Cc1cccc(-c2nc(CN3Cc4ccccc4C3=O)[nH]c2-c2ccc3ncnn3c2)n1 [Compound 1.56, 2-((5-([1,2,4]triazolo[1,5-a]pyridin-6-yl)-4-(6-methylpyridin-2-yl)-1H-imidazol-2-yl)methyl)isoindolin-1-one] | 0.1 to 1 µM | 0.01 to 0.1 µM |
